In article PMC12391121, “Identification and validation of the VEGF/p38MAPK/HSP27 pro-tumor inflammatory pathway: screening of active components from Patrinia villosa and evaluation of their drug-likeness” (Frontiers in Immunology, 2025) one finds Kd data, which are given here for four compounds.

The target in one assay is T1, HSP27 (Homo sapiens, UniProt P04792).
T1 construct: gene HSPB1; commercial recombinant human protein; labelled with Monolith RED-NHS
Kind of assay: microscale thermophoresis. Type of assay: binding. The source says:
microscale thermophoresis on HSP27
(Microscale thermophoresis detects binding through changes in fluorescence in a small temperature gradient.)

In a further assay the target is T2, p38MAPK (Homo sapiens, UniProt Q16539).
T2 construct: gene MAPK14; commercial recombinant human protein; labelled with Monolith RED-NHS
Kind of assay: microscale thermophoresis. Type of assay: binding.

T1 sequence (P04792 whole entry): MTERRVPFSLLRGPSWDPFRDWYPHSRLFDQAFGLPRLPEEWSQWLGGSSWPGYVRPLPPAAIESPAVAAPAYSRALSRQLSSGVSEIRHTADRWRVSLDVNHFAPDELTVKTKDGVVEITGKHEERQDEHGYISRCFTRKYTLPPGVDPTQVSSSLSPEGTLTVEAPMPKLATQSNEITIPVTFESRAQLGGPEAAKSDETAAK
T2 sequence (Q16539 2-360): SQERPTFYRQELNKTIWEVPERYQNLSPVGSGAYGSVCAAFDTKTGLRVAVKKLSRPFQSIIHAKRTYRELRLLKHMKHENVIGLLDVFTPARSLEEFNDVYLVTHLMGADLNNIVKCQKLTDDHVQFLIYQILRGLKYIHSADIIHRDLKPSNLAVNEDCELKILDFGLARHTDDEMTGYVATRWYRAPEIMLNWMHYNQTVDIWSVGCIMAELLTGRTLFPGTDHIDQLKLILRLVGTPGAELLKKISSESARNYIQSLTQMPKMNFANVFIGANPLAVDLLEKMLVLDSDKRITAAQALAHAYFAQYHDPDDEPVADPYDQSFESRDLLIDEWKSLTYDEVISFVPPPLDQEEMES

One may read the Kd as the concentration at which binding is half-saturated. For the compound `O=C(/C=C/c1ccc(O)c(O)c1)O[C@@H]1[C@H](O)C[C@@](O)(C(=O)O)C[C@H]1OC(=O)/C=C/c1ccc(O)c(O)c1` [4,5-Dicqa], the Kd is 3.64 µM on HSP27 and 1.71 µM at p38MAPK.
In the same order, the values of `C[C@@H]1O[C@@H](OC[C@H]2O[C@@H](Oc3c(-c4ccc(O)cc4)oc4cc(O)cc(O)c4c3=O)[C@H](O)[C@@H](O)[C@@H]2O)[C@H](O)[C@H](O)[C@H]1O` [Nicotiflorin] are 4.47 µM and 1.4 µM.
For `C[S+]([O-])c1ccc(-c2nc(-c3ccncc3)c(-c3ccc(F)cc3)[nH]2)cc1` (stereo not shown) [SB203580], on HSP27, the dissociation constant Kd was 0.915 µM.
Regarding `C[C@@H]1O[C@@H](OC[C@H]2O[C@@H](Oc3c(-c4ccc(O)c(O)c4)oc4cc(O)cc(O)c4c3=O)[C@H](O)[C@@H](O)[C@@H]2O)[C@H](O)[C@H](O)[C@H]1O` [Rutin], the Kd at HSP27 was determined as 3.76 µM; at p38MAPK, 1.27 µM.
